According to US11814412B2, “Artificial proteins and compositions and methods thereof” (The Trustees of the University of Pennsylvania, priority 2015, dated 2023):

Biological target: 3M, mammalian maquette MR reporter (de novo heme-binding maquette protein)
Conditions: read-out: Kd (heme-binding affinity), current (preliminary) 3M before directed evolution

Compound: C=CC1=C(C)c2cc3[nH]c(cc4nc(cc5[nH]c(cc1n2)c(C)c5CCC(=O)O)C(CCC(=O)O)=C4C)c(C)c3C=C.[Fe] [heme]
- Kd: ~1000 nM
